{"source": "PubChem BioAssay AID256", "about": "(DTP/NCI, 2004)", "test_system": "CD2F1 mice, L1210 leukemia ip, survival T/C", "assay": "NCI In Vivo Anticancer Drug Screen. Data for tumor model L1210 Leukemia (intraperitoneal) in CD2F1 (CDF1) mice", "settings": "higher = longer survival", "summary_of_the_method": "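Read-out first: treated-group measurement over vehicle-control measurement, expressed as a ratio. Animals bore a transplanted tumor line and were dosed with compound or vehicle.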", "key": {"[1]": {"settings": "endpoint: mean survival time, dose: 12.5 mg/kg/injection, schedule: Q04DX003 (ip), vehicle: saline with Tween-80"}, "[2]": {"settings": "endpoint: mean survival time, dose: 25.0 mg/kg/injection, schedule: Q04DX003 (ip), vehicle: saline with Tween-80"}}, "note": "Values joined by “and” are separate entries in the source; they are usually repeats but may differ in a detail not shown here. Equal values may be shown once. Toxic doses and inconclusive results are not listed."}
{"smiles": "NC(=O)c1c(F)c(F)c(Oc2c(F)c(F)c(Oc3c(F)c(F)c(C(N)=O)c(F)c3F)c(F)c2F)c(F)c1F", "values": [{"measurement": "T/C", "setting": "endpoint: mean survival time, dose: 12.5 mg/kg/injection, schedule: Q01DX009 (ip), vehicle: saline with Tween-80", "value": "103 % of control"}, {"measurement": "T/C", "setting": "[1]", "value": "101 % of control"}, {"measurement": "T/C", "setting": "endpoint: mean survival time, dose: 25.0 mg/kg/injection, schedule: Q01DX009 (ip), vehicle: saline with Tween-80", "value": "100 % of control"}, {"measurement": "T/C", "setting": "[2]", "value": "101 % of control"}, {"measurement": "T/C", "setting": "endpoint: mean survival time, dose: 50.0 mg/kg/injection, schedule: Q01DX009 (ip), vehicle: saline with Tween-80", "value": "101 % of control"}, {"measurement": "T/C", "setting": "endpoint: mean survival time, dose: 50.0 mg/kg/injection, schedule: Q04DX003 (ip), vehicle: saline with Tween-80", "value": "98 % of control"}]}
{"smiles": "N#Cc1c(-c2ccc(F)cc2)c(-c2ccc(F)cc2)nn(CCO)c1=O", "values": [{"measurement": "T/C", "setting": "endpoint: median survival time, dose: 12.5 mg/kg/injection, schedule: Q01DX005 (ip), vehicle: distilled water + Tween-80", "value": "98 % of control and 100 % of control"}, {"measurement": "T/C", "setting": "endpoint: median survival time, dose: 25.0 mg/kg/injection, schedule: Q01DX005 (ip), vehicle: distilled water + Tween-80", "value": "98 % of control and 100 % of control"}, {"measurement": "T/C", "setting": "endpoint: median survival time, dose: 50.0 mg/kg/injection, schedule: Q01DX005 (ip), vehicle: distilled water + Tween-80", "value": "102 % of control and 104 % of control"}, {"measurement": "T/C", "setting": "endpoint: median survival time, dose: 72.0 mg/kg/injection, schedule: Q01DX005 (ip), vehicle: water", "value": "106 % of control and 111 % of control"}, {"measurement": "T/C", "setting": "endpoint: median survival time, dose: 100.0 mg/kg/injection, schedule: Q01DX005 (ip), vehicle: distilled water + Tween-80", "value": "107 % of control"}, {"measurement": "T/C", "setting": "endpoint: median survival time, dose: 108.0 mg/kg/injection, schedule: Q01DX005 (ip), vehicle: distilled water + Tween-80", "value": "118 % of control"}, {"measurement": "T/C", "setting": "endpoint: median survival time, dose: 120.0 mg/kg/injection, schedule: Q01DX005 (ip), vehicle: water", "value": "121 % of control and 123 % of control"}, {"measurement": "T/C", "setting": "endpoint: median survival time, dose: 180.0 mg/kg/injection, schedule: Q01DX005 (ip), vehicle: distilled water + Tween-80", "value": "124 % of control"}, {"measurement": "T/C", "setting": "endpoint: median survival time, dose: 200.0 mg/kg/injection, schedule: Q01DX005 (ip), vehicle: distilled water + Tween-80", "value": "110 % of control"}, {"measurement": "T/C", "setting": "endpoint: median survival time, dose: 333.3 mg/kg/injection, schedule: Q01DX005 (ip), vehicle: water", "value": "325 % of control"}, {"measurement": "T/C", "setting": "endpoint: median survival time, dose: 333.33 mg/kg/injection, schedule: Q01DX005 (ip), vehicle: water", "value": "196 % of control"}, {"measurement": "T/C", "setting": "endpoint: median survival time, dose: 500.0 mg/kg/injection, schedule: Q01DX005 (ip), vehicle: distilled water + Tween-80", "value": "204 % of control"}, {"measurement": "T/C", "setting": "endpoint: median survival time, dose: 555.55 mg/kg/injection, schedule: Q01DX005 (ip), vehicle: water", "value": "264 % of control"}]}
{"smiles": "CC(=O)CC(=O)C1CCC(C(=O)CC(C)=O)CC1", "note": "(stereo not given)", "values": [{"measurement": "T/C", "setting": "endpoint: mean survival time, dose: 100.0 mg/kg/injection, schedule: Q04DX003 (ip), vehicle: saline with Tween-80", "value": "95 % of control"}, {"measurement": "T/C", "setting": "endpoint: mean survival time, dose: 200.0 mg/kg/injection, schedule: Q04DX003 (ip), vehicle: saline with Tween-80", "value": "91 % of control"}]}
{"smiles": "[Cl][Pt+2][Cl].[NH-]CC1CCCCC1[NH-]", "note": "(stereo not given)", "values": [{"measurement": "T/C", "setting": "endpoint: mean survival time, dose: 3.12 mg/kg/injection, schedule: Q04DX003 (ip), vehicle: saline with Tween-80", "value": "222 % of control"}, {"measurement": "T/C", "setting": "endpoint: mean survival time, dose: 6.25 mg/kg/injection, schedule: Q04DX003 (ip), vehicle: saline with Tween-80", "value": "319 % of control and 175 % of control"}, {"measurement": "T/C", "setting": "[1]", "value": "348 % of control and 270 % of control"}, {"measurement": "T/C", "setting": "[2]", "value": "309 % of control"}]}
{"smiles": "CCCCC(=O)OCC(=O)[C@]1(O)Cc2c(O)c3c(c(O)c2[C@@H](OC2CC(NC(=O)C(F)(F)F)C(O)C(C)O2)C1)C(=O)c1c(OC)cccc1C3=O", "note": "(stereo not given in full)", "values": [{"measurement": "T/C", "setting": "endpoint: mean survival time, dose: 4.0 mg/kg/injection, schedule: Q01DX009 (ip), vehicle: Klucel (hydroxypropylcellulose) (HPC)", "value": "113 % of control"}, {"measurement": "T/C", "setting": "endpoint: mean survival time, dose: 4.0 mg/kg/injection, schedule: Q01DX009 (ip), vehicle: water", "value": "97 % of control"}, {"measurement": "T/C", "setting": "endpoint: mean survival time, dose: 8.0 mg/kg/injection, schedule: Q01DX009 (ip), vehicle: Klucel (hydroxypropylcellulose) (HPC)", "value": "118 % of control"}, {"measurement": "T/C", "setting": "endpoint: mean survival time, dose: 8.0 mg/kg/injection, schedule: Q01DX009 (ip), vehicle: water", "value": "101 % of control"}, {"measurement": "T/C", "setting": "endpoint: mean survival time, dose: 16.0 mg/kg/injection, schedule: Q01DX009 (ip), vehicle: water", "value": "106 % of control"}, {"measurement": "T/C", "setting": "endpoint: mean survival time, dose: 32.0 mg/kg/injection, schedule: Q01DX009 (ip), vehicle: Klucel (hydroxypropylcellulose) (HPC)", "value": "150 % of control"}, {"measurement": "T/C", "setting": "endpoint: mean survival time, dose: 32.0 mg/kg/injection, schedule: Q01DX009 (ip), vehicle: water", "value": "111 % of control"}, {"measurement": "T/C", "setting": "endpoint: mean survival time, dose: 64.0 mg/kg/injection, schedule: Q01DX009 (ip), vehicle: Klucel (hydroxypropylcellulose) (HPC)", "value": "167 % of control"}, {"measurement": "T/C", "setting": "endpoint: mean survival time, dose: 64.0 mg/kg/injection, schedule: Q01DX009 (ip), vehicle: water", "value": "113 % of control"}, {"measurement": "T/C", "setting": "endpoint: mean survival time, dose: 128.0 mg/kg/injection, schedule: Q01DX009 (ip), vehicle: Klucel (hydroxypropylcellulose) (HPC)", "value": "250 % of control"}, {"measurement": "T/C", "setting": "endpoint: median survival time, dose: 13.0 mg/kg/injection, schedule: Q10HX004 (ip), vehicle: other", "value": "100 % of control"}, {"measurement": "T/C", "setting": "endpoint: median survival time, dose: 21.6 mg/kg/injection, schedule: Q10HX004 (ip), vehicle: other", "value": "102 % of control"}, {"measurement": "T/C", "setting": "endpoint: median survival time, dose: 36.0 mg/kg/injection, schedule: Q10HX004 (ip), vehicle: other", "value": "114 % of control"}, {"measurement": "T/C", "setting": "endpoint: median survival time, dose: 60.0 mg/kg/injection, schedule: Q10HX004 (ip), vehicle: other", "value": "118 % of control"}, {"measurement": "T/C", "setting": "endpoint: median survival time, dose: 100.0 mg/kg/injection, schedule: Q10HX004 (ip), vehicle: other", "value": "153 % of control"}]}
